Reference: patent US12594259B2, “Treatment regimen for the treatment of neurological diseases or conditions” (ACCURE THERAPEUTICS, S.L., priority 2019, dated 2026)
Entries after “also recorded” stand apart in the source; their conditions may differ. Where two headings read alike, the source gives them in different places.

Assays:
[1] = Plasma pharmacokinetics of BN201 in rats (LC-MS/MS, WinNonlin); format: in vivo, Sprague Dawley Rat; conditions: 7 doses, Mean ± SEM; for Vd: iv, 25 mg/kg; for AUC(0-inf) / AUC(0-t) / Cmax / Tmax / half-life / AUC_%Extrap (obs): rat plasma
Experimental: (§1) • Receipt of animals (Male Sprague Dawley Rats, Age: 12-13 weeks, Body weight range at the time of study initiation: 306.8 — 385.2 g) and acclimatization of animals for a period of at least one week • Day 0: Administration of Lysolecithin in optic nerve • Administration of test compound (BN201) daily (Day 0 to day 6=7 doses in total) intra-peritoneally (IP) at various doses (10 mg/Kg, 25 mg/Kg, 70 mg/Kg) and Intravenously (infusion 25 mg/Kg) over 2 h for block1. • On day 6, Sampling of blood from block1 for plasma at predetermined time points (8-9 time points) for PK and tissue collection (Eye and optic nerve) for histopathological assessment. • Determination of plasma levels of BN201 by LC-MS/MS • Determination of Pharmacokinetic Parameters of BN201 by WinNonlin Analysis • Test compound administration (IP@10 & 25 mg/Kg) once daily (Day 0 to day 6=7 doses in total) for block2; Tissue collection (Eye and optic nerve collection during termination of the study) on day 14, and 28 for histopathological assessment. 3. Animal Conditioning
(§2) • Group 1 and 2 served as sham and pathological control respectively and only saline was administered • Test compound was delivered once at various doses (as mentioned above) through IP or IV infusion in the respective groups. The first dosage was given 1 hour after Lysolecithin injection and repeated once/day until the end of the experiment • On day 6, blood was collected at various time points after administration of test item for drug concentration measurement: • Group 3-5 (IP groups): Pre-dose, 0.25, 0.5, 1, 4, 8 h, 12 h & 24 h (8 time points) • Group 6 (IV Infusion group): Pre-dose, then the following times post infusion: Oh (end of the infusion), 0.25 h, 0.5 h, 1 h, 4 h, 8 h, 12 h & 24 h (9 time points) • ˜200 μL of blood per time point was collected from Jugular vein for all the time points in K2EDTA blood collection tubes and stored at 4° C. until plasma separation within 30 minutes. After plasma separation, all the plasma samples were stored in two aliquots at −80° C. until the completion of all the time points. Further, one aliquot of plasma samples was submitted together to the DMG/KG for drug concentration analysis. 9. Observation and Readouts 9.1 Body weight
Study samples were processed by protein precipitation method using cold acetonitrile. In brief, 10 μL of plasma was mixed with 200 μL of acetonitrile containing 100 ng/mL-Verapamil as internal standard. The contents were vortexed to ensure mixing and the precipitated protein was removed by centrifugation at 4000 rpm for 15 minutes at 4° C. The supernatant was collected and submitted for Bioanalysis.

[2] = Body weight in lysolecithin induced acute optic neuritis study; format: in vivo, Sprague Dawley Rat; conditions: Blocks 1 & 2, compared to pathological control group
Experimental: Body weight measurement was performed every morning from day 0 to day 7. All animals were observed regularly for clinical signs.

[3] = test system: Lysolecithin induced optic neuritis in SD Rats; test: Inflammation (H&E stained optic nerve) in lysolecithin induced acute optic neuritis model; format: in vivo, Sprague Dawley Rat; conditions: BN201 treatment, conclusions over blocks 1 and 2
Experimental: as §1
Animals were anesthetized; the shaved skin was disinfected with 75% ethanol. […]
• Group 1 and 2 served as sham and pathological control respectively and only saline was administered • Test compound was delivered once at various doses (as mentioned above) through IP or IV infusion in the respective groups. […] Observation and Readouts 9.1 Body weight […]

[4] = test system: Lysolecithin induced optic neuritis in SD Rats; test: Retinal ganglion cell (RGC) count in lysolecithin induced acute optic neuritis model; format: in vivo, Sprague Dawley Rat
Experimental: as §1
(§3) Animals were anesthetized; the shaved skin was disinfected with 75% ethanol. A 1 cm incision was made in the skin above the orbit of an eye. The lacrimal glands and extraocular muscles were resected to expose 3 mm of the optic nerve under an operating microscope. The dura and arachnoid matter around the optic nerve were opened longitudinally. A small amount of dye was placed on the dura to show the microinjection site. This is done to identify the focal lesion for the histology. Microinjection was performed with a glass micropipette attached to a Hamilton syringe. The pipette was inserted into the optic nerve as superficially as possible at 2 mm posterior to the globe, and 0.8 μL of 1% lysolecithin (with 0.02% Evan's Blue) was slowly pressure-injected into the nerve over approximately 30 seconds. The sham control rats (animals without disease) were injected with 0.02% Evan's Blue in 0.8 μL saline without lysolecithin. After the injection, the skin incision was sutured, and antibiotic solution were administered to prevent infection.
as §2
(§4) • Animals were euthanized on Day 7 with CO2 and were perfused transcardially with saline and 4% paraformaldehyde. Optic nerves (from globe to chiasm) and eye were removed and were fixed in 1% paraformaldehyde overnight. Eye from all the animals were collected in Davidson's fixative. • All tissues were processed in an automatic tissue processor and embedded in paraffin. Five-micro meter-thick (5 μm) transverse sections were made at the site of injections (at the place of the dye) using a rotary microtome. • Serial sections of each optic nerve were obtained (4-6 sections). […]

[5] = test system: Lysolecithin induced optic neuritis in SD Rats; test: Axonal loss score (BSS stained optic nerve) in lysolecithin induced acute optic neuritis model; format: in vivo, Sprague Dawley Rat
Experimental: as §1, §3, §2, §4

[6] = test system: serum-glucocorticoid (SGK) pathway; conditions: cited from earlier work
[7] = Phase 1 trial in healthy volunteers (pharmacokinetics); format: in vivo; conditions: humans
[8] = test system: Lysolecithin induced optic neuritis in SD Rats; test: Overall efficacy in lysolecithin induced acute optic neuritis model; format: in vivo, Sprague Dawley Rat; conditions: daily IV 25 mg/Kg (2 h infusion) compared to 10, 25 and 70 mg/Kg IP
Experimental: The aim of Block1 was to determine the efficacy of BN201 administered intraperitoneally at various doses (10 mg/Kg, 25 mg/Kg, 70 mg/Kg) and intravenously at 25 mg/Kg in Lysolecithin induced optic neuritis in SD Rats (7 days study).
The aim of Block2 was to determine the efficacy of BN201 in long duration model of lysolecithin induced optic neuritis in SD rats (14 and 28 day study) […]
• Group 1 and 2 served as sham and pathological control respectively and only saline was administered • Test compound was delivered once at various doses (as mentioned above) through IP or IV infusion in the respective groups. […] Observation and Readouts 9.1 Body weight

[9] = test system: Lysolecithin induced optic neuritis in SD Rats; test: Demyelination score (Luxol fast blue stained optic nerve) in lysolecithin induced acute optic neuritis model; format: in vivo, Sprague Dawley Rat
Experimental: as §1, §3, §2, §4

[10] = male, Sprague Dawley, IP 10 mg/Kg once daily
[11] = male, Sprague Dawley, IP 25 mg/Kg once daily
[12] = male, Sprague Dawley, IP 70 mg/Kg once daily
[13] = male, Sprague Dawley, IV infusion 25 mg/Kg over 2 h once daily
[14] = BN201 treatment, short term and long term, summary vs untreated groups
[15] = Block 2, day 28, 25 mg/Kg IP day 0 to day 6, vs placebo (p<0.05)

CC(C)CN(CC(=O)N(CCCN1CCCC1=O)CC(N)=O)C(=O)CNCCc1ccccc1F [BN201, [N-(2-(2′-fluorophenyl)ethyl)-glycyl]-[N-(2-methylpropyl)-glycyl]-N-[3-(2′-oxopyrrolidinyl)-propyl]glycinamide]
MRT inf ([1]; male, Sprague Dawley, plasma, rat, IV infusion 25 mg/Kg over 2 h once daily): 3 h
clearance ([1]; male, Sprague Dawley, plasma, rat, IV infusion 25 mg/Kg over 2 h once daily, read-out: CLp (converted)): 31.7 mL/min/kg
Vd ([1]; male, Sprague Dawley, rat, plasma, rat, IV infusion 25 mg/Kg over 2 h once daily, read-out: Vd): 15.8 ± 2.2 L/kg
Vd ([1]; male, Sprague Dawley, rat, plasma, rat, IV infusion 25 mg/Kg over 2 h once daily, read-out: Vdss): 5.7 ± 1.2 L/kg
AUC(0-inf) [1, 10]: 6990 ng·h/mL
AUC(0-t) [1, 10]: 6920 ± 385 ng·h/mL
Cmax [1, 10]: 6680 ± 349 ng/mL
Tmax [1, 10]: 0.3 h
half-life [1, 10]: 5.5 ± 0.9 h
AUC(0-inf) [1, 11]: 14700 ± 840 ng·h/mL
AUC(0-t) [1, 11]: 14500 ± 859 ng·h/mL
Cmax [1, 11]: 14400 ± 1540 ng/mL
Tmax [1, 11]: 0.3 h
half-life [1, 11]: 5.8 ± 0.2 h
AUC(0-inf) [1, 12]: 62800 ± 2760 ng·h/mL
AUC(0-t) [1, 12]: 62400 ± 2720 ng·h/mL
Cmax [1, 12]: 34700 ± 2010 ng/mL
Tmax [1, 12]: 0.3 h
half-life [1, 12]: 4.7 ± 0.8 h
AUC(0-inf) [1, 13]: 15400 ± 1810 ng·h/mL
AUC(0-t) [1, 13]: 15100 ± 1780 ng·h/mL
Cmax [1, 13]: 10400 ± 1320 ng/mL
Tmax [1, 13]: 2 h
half-life [1, 13]: 6.2 ± 0.9 h
AUC_%Extrap (obs) ([1]; IP 10 mg/Kg once daily): 1 ± 0.2%
AUC_%Extrap (obs) ([1]; IP 25 mg/Kg once daily): 1 ± 0.3%
AUC_%Extrap (obs) ([1]; IP 70 mg/Kg once daily): 0.5 ± 0.1%
AUC_%Extrap (obs) ([1]; IV infusion 25 mg/Kg over 2 h once daily): 1.6 ± 0.2%
Body weight [2]: did not significantly change the body weight
inflammation [3]: reduced inflammation
retinal ganglion cells [4, 14]: significant improvement in retinal ganglion cells
protection against retinal ganglion cell loss ([4]; Block 1, day 7, 25 mg/Kg IP): 48%
protection against retinal ganglion cell loss ([4]; Block 1, day 7, 70 mg/Kg IP): 69%
RGC count ([4]; Block 1, day 7, BN201 treated groups vs pathological control): trend of increased RGC count
RGC count ([4]; Block 1, day 7, IV infusion 25 mg/Kg vs pathological control): statistically significant improvement in RGC count
RGC count [4, 15]: improvements; also recorded: significantly higher
axonal loss ([5]; BN201 treatment, conclusions over blocks 1 and 2): reduced
protection against axonal loss (axonal loss score) ([5]; Block 1, day 7, 10, 25 and 70 mg/Kg IP): 36-39%
protection against axonal loss ([5]; Block 1, day 7, IV infusion 25 mg/Kg): 62%
Axonal loss score ([5]; Block 2, day 28, 10 mg/Kg IP day 0 to day 6, vs placebo (p<0.05)): significant reduction in axonal loss; also recorded: significantly lower
Axonal loss score [5, 15]: significant reduction in axonal loss; also recorded: significantly lower
protection of axons against injury ([5]; IP or IV, 10 to 70 mg/Kg/day for 6 days, short term (7 days) and long term (up to day 28 post-injury)): able to protect axons against injury
activation of the SGK pathway, including phosphorylation of Foxo3 or NDRG1 [6]: activates the serum-glucocorticoid (SGK) pathway
half-life ([7]; human, in vivo): ≤ 8 h
clearance of the drug [7]: quick clearance
drug accumulation [7]: lack of drug accumulation
protection against optic neuritis [8]: superior protection against optic neuritis
demyelination [9, 14]: reduced; also recorded: significant improvement
protection against demyelination (demyelination score) ([9]; Block 1, day 7, 10 mg/Kg IP): 13%
protection against demyelination (demyelination score) ([9]; Block 1, day 7, 25 mg/Kg IP): 15%
protection against demyelination ([9]; Block 1, day 7, 25 mg/Kg IV infusion): 22%
protection against demyelination (demyelination score) ([9]; Block 1, day 7, 70 mg/Kg IP): 44%
Demyelination score ([9]; Block 2, day 28, 10 mpk IP day 0 to day 6, vs placebo (p<0.05)): significantly lower
Demyelination score ([9]; Block 2, day 28, 25 mpk IP day 0 to day 6, vs placebo (p<0.05)): significantly lower
